The values that follow are results of earlier work, collected in patent US10905651B1, “Zeinmersome nanocarriers for drug delivery to the liver” (King Abdulaziz University, priority 2020, dated 2021).

The conditions of this data set: cited from earlier work.

As for `CCCc1nc(C(C)(C)O)c(C(=O)O)n1Cc1ccc(-c2ccccc2-c2nnn[nH]2)cc1` [olmesartan], the “oral bioavailability of olmesartan” value (Kobayashi et al. 2000) is 4.5%. In addition, for the setting “following IV administration”, the “volume of distribution (Vd)” value is 15 to 25 L.
